Measured values published in ChEMBL document CHEMBL4028802, “DILIrank: the largest reference drug list ranked by the risk for developing drug-induced liver injury in humans” (Drug Discov Today, 2016).
Non-standard residues stand in square brackets, D forms with d. Residues, ends and D or L forms follow the SMILES beside them. *: point of attachment. dPhe(4-NHCONH2) = NC(=O)Nc1ccc(C[C@@H](N)C(=O)O)cc1; Dihydroorotyl(S) = O=C1C[C@@H](C(=O)*)NC(=O)N1; dPhe(4-Cl) = N[C@H](Cc1ccc(Cl)cc1)C(=O)O; Phe(4-NH2) = Nc1ccc(C[C@H](N)C(=O)O)cc1; d2Nal = N[C@H](Cc1ccc2ccccc2c1)C(=O)O; Lys(iPr) = CC(C)NCCCC[C@H](N)C(=O)O; d3Pal = N[C@H](Cc1cccnc1)C(=O)O

Legend:
Homo sapiens [1] = species: Homo sapiens; experiment: Liver toxicity in human assessed as induction of drug-induced liver injury by measuring severity class index
Homo sapiens [2] = species: Homo sapiens; experiment: Liver toxicity in human assessed as induction of drug-induced liver injury by measuring verified drug-induced liver injury concern status
Throughout, for DILI severity class: key of the grades not given here.

SMILES	DILI_severity_class (Homo sapiens [1])	DILI_Concern (Homo sapiens [2])
C[C@@H]1C[C@H]2[C@@H]3CCC4=CC(=O)C=C[C@]4(C)[C@@]3(F)[C@@H](O)C[C@]2(C)[C@@]1(O)C(=O)CO [DEXAMETHASONE]	3	Ambiguous-Dili-Concern
CCC(=O)O[C@](Cc1ccccc1)(c1ccccc1)[C@H](C)CN(C)C [PROPOXYPHENE]	3	Less-Dili-Concern
NC(=O)CC[C@@H]1NC(=O)[C@H](Cc2ccccc2)NC(=O)[C@H](Cc2ccc(O)cc2)NC(=O)CCSSC[C@@H](C(=O)N2CCC[C@H]2C(=O)N[C@H](CCCN=C(N)N)C(=O)NCC(N)=O)NC(=O)[C@H](CC(N)=O)NC1=O [DESMOPRESSIN]	3	Ambiguous-Dili-Concern
Cc1cccc(C)c1OCC(C)N (configuration not stated) [MEXILETINE]	3	Most-Dili-Concern
COc1ccc(CC2c3cc(OC)c(OC)cc3CC[N+]2(C)CCC(=O)OCCCCCOC(=O)CC[N+]2(C)CCc3cc(OC)c(OC)cc3C2Cc2ccc(OC)c(OC)c2)cc1OC (configuration not stated)	0	No-Dili-Concern
NCCCCCC(=O)O [AMINOCAPROIC ACID]	0	No-Dili-Concern
CC(=O)Oc1cc(C(C)C)c(OCCN(C)C)cc1C [MOXISYLYTE]	8	Most-Dili-Concern
CC(C)C(=O)Nc1ccc([N+](=O)[O-])c(C(F)(F)F)c1 [FLUTAMIDE]	8	Most-Dili-Concern
CN[C@H]1CC[C@@H](c2ccc(Cl)c(Cl)c2)c2ccccc21 [SERTRALINE]	3	Less-Dili-Concern
Cc1onc(-c2c(Cl)cccc2Cl)c1C(=O)N[C@@H]1C(=O)N2[C@@H]1SC(C)(C)[C@@H]2C(=O)O [DICLOXACILLIN]	3	Less-Dili-Concern
CC[C@]1(O)C[C@H]2CN(CCc3c([nH]c4ccccc34)[C@@](C(=O)OC)(c3cc4c(cc3OC)N(C=O)[C@H]3[C@@](O)(C(=O)OC)[C@H](OC(C)=O)[C@]5(CC)C=CCN6CC[C@]43[C@@H]65)C2)C1 [VINCRISTINE]	8	Less-Dili-Concern
COC(=O)[C@@H]1CC2=CC(=O)CC[C@]2(C)[C@@]23O[C@@H]2C[C@@]2(C)[C@@H](CC[C@@]24CCC(=O)O4)[C@H]13 [EPLERENONE]	4	Ambiguous-Dili-Concern
CC(=O)N[C@H](Cc1ccc2ccccc2c1)C(=O)N[C@H](Cc1ccc(Cl)cc1)C(=O)N[C@H](Cc1cccnc1)C(=O)N[C@@H](CO)C(=O)N[C@@H](Cc1ccc(NC(=O)[C@@H]2CC(=O)NC(=O)N2)cc1)C(=O)N[C@H](Cc1ccc(NC(N)=O)cc1)C(=O)N[C@@H](CC(C)C)C(=O)N[C@@H](CCCCNC(C)C)C(=O)N1CCC[C@H]1C(=O)N[C@H](C)C(N)=O [DEGARELIX] (Ac-[d2Nal][dPhe(4-Cl)][d3Pal]S[Phe(4-NH2)](Dihydroorotyl(S))[dPhe(4-NHCONH2)]L[Lys(iPr)]P[dA]-NH2)	3	Ambiguous-Dili-Concern
Nc1ccc(C(=O)NCC(=O)O)cc1 [AMINOHIPPURIC ACID]	0	No-Dili-Concern
CN(C)c1ccc(O)c2c1C[C@H]1C[C@H]3[C@H](N(C)C)C(O)=C(C(N)=O)C(=O)[C@@]3(O)C(O)=C1C2=O [MINOCYCLINE]	8	Most-Dili-Concern
CC=CC1=C(C(=O)O)N2C(=O)[C@@H](NC(=O)[C@H](N)c3ccc(O)cc3)[C@H]2SC1 [CEFPROZIL]	4	Less-Dili-Concern
O=C1C(O)=C([C@H]2CC[C@H](c3ccc(Cl)cc3)CC2)C(=O)c2ccccc21 [ATOVAQUONE]	8	Ambiguous-Dili-Concern
COc1ccc2c(C(=S)N(C)CC(=O)O)cccc2c1C(F)(F)F [TOLRESTAT]	8	Most-Dili-Concern
CC(C)NCC(O)COc1ccc(CCOCC2CC2)cc1 (configuration not stated) [BETAXOLOL]	3	Ambiguous-Dili-Concern

SMILES	DILI_severity_class (Homo sapiens [1])	DILI_Concern (Homo sapiens [2])
CC1=C(C(=O)O)N2C(=O)[C@@H](NC(=O)[C@H](N)C3=CCC=CC3)[C@H]2SC1 [CEPHRADINE]	4	Ambiguous-Dili-Concern
CC(NN)c1ccccc1 (configuration not stated) [MEBANAZINE]	8	Most-Dili-Concern
COc1ccc2c(c1)[C@]13CCCC[C@@H]1[C@H](C2)N(C)CC3 [DEXTROMETHORPHAN]	0	No-Dili-Concern
CCCCCOC(=O)Nc1nc(=O)n([C@@H]2O[C@H](C)[C@@H](O)[C@H]2O)cc1F [CAPECITABINE]	2	Ambiguous-Dili-Concern
NC(=O)C[S@@+]([O-])C(c1ccccc1)c1ccccc1 [ARMODAFINIL]	3	Ambiguous-Dili-Concern
CCCCNc1ccc(C(=O)OCCOCCOCCOCCOCCOCCOCCOCCOCCOC)cc1 [BENZONATATE]	0	Less-Dili-Concern
Cc1ccc(S(=O)(=O)NC(=O)NN2CCCCCC2)cc1 [TOLAZAMIDE]	2	Less-Dili-Concern
CC(C)c1nc(N(C)S(C)(=O)=O)nc(-c2ccc(F)cc2)c1/C=C/[C@@H](O)C[C@@H](O)CC(=O)O [ROSUVASTATIN]	3	Less-Dili-Concern
COc1cc2nc(N3CCN(C(=O)C4CCCO4)CC3)nc(N)c2cc1OC (configuration not stated) [TERAZOSIN]	0	No-Dili-Concern
O=C(O)CCCO [OXYBATE]	0	No-Dili-Concern
OCCN1C[C@H](O)[C@@H](O)[C@H](O)[C@H]1CO [MIGLITOL]	0	No-Dili-Concern
NC(=O)CC[C@@H]1NC(=O)[C@H](Cc2ccccc2)NC(=O)[C@H](Cc2ccc(O)cc2)NC(=O)[C@@H](N)CSSC[C@@H](C(=O)N2CCC[C@H]2C(=O)N[C@@H](CCCN=C(N)N)C(=O)NCC(N)=O)NC(=O)[C@H](CC(N)=O)NC1=O [VASOPRESSIN]	0	No-Dili-Concern
NCCS [CYSTEAMINE]	3	Ambiguous-Dili-Concern
Nc1c(CC(=O)O)cccc1C(=O)c1ccc(Br)cc1 [BROMFENAC]	8	Most-Dili-Concern
C[C@H](N)Cc1ccccc1 [DEXTROAMPHETAMINE]	0	No-Dili-Concern
COc1cccc2c1C(=O)c1c(O)c3c(c(O)c1C2=O)C[C@@](O)(C(C)=O)C[C@@H]3O[C@H]1C[C@H](N)[C@H](O)[C@H](C)O1 [DAUNORUBICIN]	0	No-Dili-Concern
CC(=O)[C@@]1(O)CC[C@H]2[C@@H]3C=C(C)C4=CC(=O)CC[C@]4(C)[C@H]3CC[C@@]21C	1	Ambiguous-Dili-Concern
CC(C)(C#N)c1cc(Cn2cncn2)cc(C(C)(C)C#N)c1 [ANASTROZOLE]	3	Less-Dili-Concern
CNC(=O)c1cc(Oc2ccc(NC(=O)Nc3ccc(Cl)c(C(F)(F)F)c3)cc2)ccn1 [SORAFENIB]	8	Most-Dili-Concern

SMILES	DILI_severity_class (Homo sapiens [1])	DILI_Concern (Homo sapiens [2])
OC[C@H]1O[C@@H](n2cnc3c2NC=NC[C@H]3O)C[C@@H]1O [PENTOSTATIN]	3	Most-Dili-Concern
OC[C@@H](O)[C@@H](O)[C@H](O)[C@H](O)CO [MANNITOL]	0	No-Dili-Concern
O=NN(CCCl)C(=O)NC1CCCCC1 [LOMUSTINE]	3	Less-Dili-Concern
Cc1ccc(Nc2c(F)cccc2Cl)c(CC(=O)O)c1 [LUMIRACOXIB]	8	Most-Dili-Concern
CC[C@@H](CO)NCCN[C@@H](CC)CO [ETHAMBUTOL]	8	Most-Dili-Concern
CC(=O)[C@]1(O)Cc2c(O)c3c(c(O)c2[C@@H](O[C@H]2C[C@H](N)[C@H](O)[C@H](C)O2)C1)C(=O)c1ccccc1C3=O [IDARUBICIN]	3	Ambiguous-Dili-Concern
CC(C)(N)CO.Cn1c(=O)c2[nH]c(Br)nc2n(C)c1=O [PAMABROM]	0	No-Dili-Concern
CC(C(=O)O)c1ccc(-c2ccccc2)c(F)c1 (configuration not stated) [FLURBIPROFEN]	3	Ambiguous-Dili-Concern
CCC(=O)C(CC(C)N(C)C)(c1ccccc1)c1ccccc1 (configuration not stated) [METHADONE]	3	Ambiguous-Dili-Concern
O=C(CCNNC(=O)c1ccncc1)NCc1ccccc1 [NIALAMIDE]	8	Most-Dili-Concern
O=S([O-])([O-])=S.[Na+].[Na+]	0	No-Dili-Concern
O=C(O[C@H]1C[C@H]2CC[C@@H](C1)[N+]21CCCC1)C(O)(c1ccccc1)c1ccccc1.[Cl-] [TROSPIUM CHLORIDE]	0	No-Dili-Concern
C=C(c1ccc(C(=O)O)cc1)c1cc2c(cc1C)C(C)(C)CCC2(C)C [BEXAROTENE]	8	Most-Dili-Concern
CN(C)CCCC1(c2ccc(F)cc2)OCc2cc(C#N)ccc21 (configuration not stated) [CITALOPRAM]	7	Less-Dili-Concern
C/C=C1\NC(=O)[C@@H]2CSSCC/C=C/[C@@H](CC(=O)N[C@H](C(C)C)C(=O)N2)OC(=O)[C@H](C(C)C)NC1=O	0	No-Dili-Concern
OCC(S)CS (configuration not stated) [DIMERCAPROL]	0	No-Dili-Concern
CN1CCC[C@@H]1Cc1c[nH]c2ccc(CCS(=O)(=O)c3ccccc3)cc12	3	Ambiguous-Dili-Concern
CN(C)c1cc(NC(=O)CNC(C)(C)C)c(O)c2c1C[C@H]1C[C@H]3[C@H](N(C)C)C(O)=C(C(N)=O)C(=O)[C@@]3(O)C(O)=C1C2=O [TIGECYCLINE]	8	Ambiguous-Dili-Concern
